Data from ChEMBL document CHEMBL4270528, “Design, synthesis, molecular modeling and anti-proliferative evaluation of novel quinoxaline derivatives as potential DNA intercalators and topoisomerase II inhibitors” (Eur J Med Chem, 2018).
Activity calls are given as the source filed them. No cut-off for these calls is given here.

Experiments:
Caco-2 [1] = assay: Antiproliferative activity against human Caco2 cells after 48 hrs by neutral red assay; assay type: functional, cell-based; conditions: Caco-2, 48 h
HepG2 = assay: Antiproliferative activity against human HepG2 cells after 48 hrs by neutral red assay; assay type: functional, cell-based; conditions: HepG2, 48 h
HEp-2 = assay: Antiproliferative activity against human Hep2 cells after 48 hrs by neutral red assay; assay type: functional, cell-based; conditions: HEp-2, 48 h
Calf thymus DNA = assay: Inhibition of methyl green binding to calf thymus DNA incubated for 24 hrs in dark by spectrophotometric method; assay type: nucleic-acid assay, Bos taurus
[2] = target: T1, DNA topoisomerase 2-alpha (Homo sapiens, UniProt P11388); assay: Inhibition of human topoisomerase 2 using supercoiled pHOT1 DNA as substrate after 30 mins by agarose gel electrophoresis
T1 sequence (P11388 whole entry): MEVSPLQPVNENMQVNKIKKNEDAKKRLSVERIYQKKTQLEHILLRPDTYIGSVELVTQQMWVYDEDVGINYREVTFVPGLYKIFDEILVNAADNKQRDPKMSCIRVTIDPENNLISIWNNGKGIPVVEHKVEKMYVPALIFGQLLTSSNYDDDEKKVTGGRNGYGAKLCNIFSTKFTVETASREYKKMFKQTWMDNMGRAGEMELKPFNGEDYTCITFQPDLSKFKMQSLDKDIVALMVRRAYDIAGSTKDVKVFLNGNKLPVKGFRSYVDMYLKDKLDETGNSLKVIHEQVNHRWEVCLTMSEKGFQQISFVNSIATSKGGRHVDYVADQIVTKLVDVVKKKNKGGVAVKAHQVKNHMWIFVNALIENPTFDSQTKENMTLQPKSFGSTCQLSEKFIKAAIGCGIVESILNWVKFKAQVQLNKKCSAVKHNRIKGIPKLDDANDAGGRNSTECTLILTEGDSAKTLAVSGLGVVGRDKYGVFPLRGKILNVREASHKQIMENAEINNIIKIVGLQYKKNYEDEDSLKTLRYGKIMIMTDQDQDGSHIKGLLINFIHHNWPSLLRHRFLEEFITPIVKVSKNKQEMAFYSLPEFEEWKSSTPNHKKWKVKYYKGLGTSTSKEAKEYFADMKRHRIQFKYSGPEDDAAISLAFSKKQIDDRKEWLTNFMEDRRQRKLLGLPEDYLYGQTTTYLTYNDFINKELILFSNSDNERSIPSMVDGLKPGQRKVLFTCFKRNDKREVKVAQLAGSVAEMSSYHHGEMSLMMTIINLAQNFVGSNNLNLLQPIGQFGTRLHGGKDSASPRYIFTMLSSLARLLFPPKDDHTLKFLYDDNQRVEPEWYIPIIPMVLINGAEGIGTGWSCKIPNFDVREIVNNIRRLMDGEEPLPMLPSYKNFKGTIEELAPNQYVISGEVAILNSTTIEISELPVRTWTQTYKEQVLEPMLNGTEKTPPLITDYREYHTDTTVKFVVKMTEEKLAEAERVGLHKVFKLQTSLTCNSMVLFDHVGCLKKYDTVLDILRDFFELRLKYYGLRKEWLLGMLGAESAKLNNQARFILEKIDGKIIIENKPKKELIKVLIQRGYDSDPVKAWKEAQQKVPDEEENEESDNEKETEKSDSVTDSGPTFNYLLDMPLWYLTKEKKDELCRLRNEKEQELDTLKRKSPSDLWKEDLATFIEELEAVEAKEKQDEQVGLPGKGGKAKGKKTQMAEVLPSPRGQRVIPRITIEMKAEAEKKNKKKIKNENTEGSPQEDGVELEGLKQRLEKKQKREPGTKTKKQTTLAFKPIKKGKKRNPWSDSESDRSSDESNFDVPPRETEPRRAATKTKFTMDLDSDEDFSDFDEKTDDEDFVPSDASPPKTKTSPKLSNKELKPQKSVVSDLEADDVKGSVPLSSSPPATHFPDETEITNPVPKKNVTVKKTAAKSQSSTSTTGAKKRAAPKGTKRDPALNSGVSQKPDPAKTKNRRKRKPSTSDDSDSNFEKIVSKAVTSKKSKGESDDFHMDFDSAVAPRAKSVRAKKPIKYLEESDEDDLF

Escherichia coli = assay: Induction of Escherichia coli bacteriophage lambda DNA intercalation assessed as inhibition of Sal 1/EcoR 1-mediated DNA cleavage after 2 hrs by agarose gel electrophoresis
[3] = target: T1, DNA topoisomerase 2-alpha; assay: Inhibition of human topoisomerase 2 assessed as cleavage complex formation at 10 uM using pBS-SK(+) DNA as substrate after 60 mins by agarose gel electrophoresis
[4] = target: T1, DNA topoisomerase 2-alpha; assay: Inhibition of recombinant human topoisomerase 2 assessed as reduction in relaxation of supercoiled pBS-SK(+) DNA at 10 uM after 30 mins by agarose gel electrophoresis
Caco-2 [5] = assay: Induction of apoptosis in human Caco2 cells assessed as viable cells at 0.5 uM after 24 hrs by Annexin V-FITC/propidium iodide staining based flow cytometry (reference value: 96.65%); assay type: functional; conditions: Caco-2, 24 h, read-out: Activity
Caco-2 [6] = assay: Cell cycle arrest in human Caco2 cells assessed as accumulation at G0/G1 phase at 0.5 uM after 24 hrs by propidium iodide staining based flow cytometry (reference value: 53.85%); assay type: functional
Caco-2 [7] = assay: Down regulation of Cyclin B mRNA expression level in human Caco2 cells by qRT-PCR method; assay type: functional, cell-based
[8] = target: T1, DNA topoisomerase 2-alpha; assay: Inhibition of recombinant human topoisomerase 2 assessed as reduction in relaxation of supercoiled pBS-SK(+) DNA after 30 mins by agarose gel electrophoresis
[9] = target: T1, DNA topoisomerase 2-alpha; assay: Inhibition of human topoisomerase 2 assessed as cleavage complex formation at 25 to 50 uM using pBS-SK(+) DNA as substrate after 60 mins by agarose gel electrophoresis
Caco-2 [10] = assay: Down regulation of Caspase 8 mRNA expression level in human Caco2 cells by qRT-PCR method; assay type: functional, cell-based
Caco-2 [11] = assay: Down regulation of Bec1 mRNA expression level in human Caco2 cells by qRT-PCR method; assay type: functional, cell-based
[12] = target: T1, DNA topoisomerase 2-alpha; assay: Inhibition of recombinant human topoisomerase 2 assessed as reduction in relaxation of supercoiled pBS-SK(+) DNA at 10 to 50 uM after 30 mins by agarose gel electrophoresis
Caco-2 [13] = assay: Induction of apoptosis in human Caco2 cells assessed as early apoptotic cells at 0.5 uM after 24 hrs by Annexin V-FITC/propidium iodide staining based flow cytometry (reference value: 0.48%); assay type: functional
Caco-2 [14] = assay: Induction of apoptosis in human Caco2 cells assessed as necrotic cells at 0.5 uM after 24 hrs by Annexin V-FITC/propidium iodide staining based flow cytometry (reference value: 1.59%); assay type: functional
Caco-2 [15] = assay: Down regulation of Bcl-2 mRNA expression level in human Caco2 cells by qRT-PCR method; assay type: functional, cell-based
Caco-2 [16] = assay: Cell cycle arrest in human Caco2 cells assessed as accumulation at S phase at 0.5 uM after 24 hrs by propidium iodide staining based flow cytometry (reference value: 30.96%); assay type: functional
Caco-2 [17] = assay: Induction of apoptosis in human Caco2 cells assessed as late apoptotic cells at 0.5 uM after 24 hrs by Annexin V-FITC/propidium iodide staining based flow cytometry (reference value: 0.69%); assay type: functional
Caco-2 [18] = assay: Cell cycle arrest in human Caco2 cells assessed as accumulation at G2/M phase at 0.5 uM after 24 hrs by propidium iodide staining based flow cytometry (reference value: 15.19%); assay type: functional
[19] = target: T1, DNA topoisomerase 2-alpha; assay: Inhibition of recombinant human topoisomerase 2 assessed as reduction in relaxation of supercoiled pBS-SK(+) DNA at 5 uM after 30 mins by agarose gel electrophoresis
Caco-2 [20] = assay: Induction of apoptosis in human Caco2 cells assessed as accumulation at pre-G1 phase at 0.5 uM after 24 hrs by Annexin V-FITC/propidium iodide staining based flow cytometry (reference value: 2.76%); assay type: functional
Caco-2 [21] = assay: Upregulation of […] mRNA expression level in human Caco2 cells by qRT-PCR method; assay type: functional, cell-based
Caco-2 [22] = assay: Down regulation of Bax mRNA expression level in human Caco2 cells by qRT-PCR method; assay type: functional, cell-based

SMILES | IC50 (Caco-2 [1]; read-out: IC50) [µM] | IC50 (HepG2) [µM] | IC50 (Calf thymus DNA) [µM] | IC50 [2] [µM] | DNA intercalation activity (qualitative) (Escherichia coli) | IC50 (HEp-2) [µM] | also measured
Clc1ccccc1/C=N/Nc1nc2ccccc2n2cnnc12 | 1.15 | 9.89 | 52.3 | 1.91 | Active | 0.12 | –
c1ccc(CSc2nnc3c4nncn4c4ccccc4n23)cc1 | 10.5 | > 50 | – | – | – | 5.36 | –
O=C(CSc1nnc2c3nncn3c3ccccc3n12)Nc1ccc(F)cc1 | 0.8 | 0.76 | 43.4 | 0.94 | Active | 0.5 | –
O=C(NNc1nc2ccccc2n2cnnc12)NC1CCCCC1 | 0.97 | 2.28 | 28.4 | 1.22 | – | 0.32 | –
COc1cc(NS(C)(=O)=O)ccc1Nc1c2ccccc2nc2ccccc12 | – | – | – | – | – | – | inhibition [3]: Active; inhibition [4]: Active
COc1cccc2c1C(=O)c1c(O)c3c(c(O)c1C2=O)C[C@@](O)(C(=O)CO)C[C@@H]3O[C@H]1C[C@H](N)[C@H](O)[C@H](C)O1 [DOXORUBICIN] | – | 0.62 | 30.2 | 0.88 | Active | 0.51 | IC50 (Caco-2 [1]): 0.73 µM
S=C(NNc1nc2ccccc2n2cnnc12)Nc1ccccc1 | 1.29 | 0.64 | 34.3 | 2.98 | Active | 0.1 | –
CSc1nnc2c3nncn3c3ccccc3n12 | > 50 | 22.7 | – | – | – | 5.79 | –
COc1cccc(NC(=O)CSc2nnc3c4nncn4c4ccccc4n23)c1 | 0.39 | 0.5 | 38.6 | 0.85 | Active | 0.29 | viability at 0.5 µM (Caco-2 [5]): 84.5%; Activity (Caco-2 [6]): 44.23%; Activity (Caco-2 [7]): Active; inhibition [8]: Dose-dependent effect; inhibition [9]: inactive; Activity (Caco-2 [10]): Active; Activity (Caco-2 [11]): Active; inhibition [12]: Active; Activity (Caco-2 [13]): 3.91%; Activity (Caco-2 [14]): 2.58%; Activity (Caco-2 [15]): Active; Activity (Caco-2 [16]): 15.19%; Activity (Caco-2 [17]): 7.5%; Activity (Caco-2 [18]): 40.58%; inhibition [19]: inactive; Activity (Caco-2 [20]): 13.99%; Activity (Caco-2 [21]): Active; Activity (Caco-2 [22]): Active
O=C(NNc1nc2ccccc2n2cnnc12)Nc1ccccc1 | 1.44 | 0.71 | 31.3 | 1.19 | – | 0.56 | –
CCOC(=O)CCCSc1nnc2c3nncn3c3ccccc3n12 | 14.8 | 5.8 | – | – | – | > 50 | –
Sc1nnc2c3nncn3c3ccccc3n12 | 0.57 | 0.56 | 29.9 | 1.06 | Active | 0.77 | –
CCOC(=O)CSc1nnc2c3nncn3c3ccccc3n12 | 1.42 | 0.81 | 62.6 | 2.12 | – | 0.36 | –
Clc1cccc(Cl)c1/C=N/Nc1nc2ccccc2n2cnnc12 | 5.7 | 0.06 | 40.1 | 2.97 | Active | 0.52 | –
COC(=O)CSc1nnc2c3nncn3c3ccccc3n12 | 6.33 | 9.39 | – | – | – | 3.11 | –

The next lines start with results.

IC50 (Caco-2 [1]; read-out: IC50) [µM] | IC50 (HepG2) [µM] | IC50 (Calf thymus DNA) [µM] | IC50 [2] [µM] | DNA intercalation activity (qualitative) (Escherichia coli) | SMILES | IC50 (HEp-2) [µM] | also measured
3 | 1.08 | – | – | – | CCCNc1nc2ccccc2n2cnnc12 | 2.33 | –
2.25 | 0.83 | 49.1 | 1.94 | Active | CCCCNc1nc2ccccc2n2cnnc12 | 0.01 | –
0.46 | 0.63 | 39.4 | 0.68 | Active | c1ccc2c(c1)nc(NC1CCCCC1)c1nncn12 | 0.92 | –
3.46 | 1.9 | – | 5.38 | – | CCNC(=S)NNc1nc2ccccc2n2cnnc12 | 2.37 | –
8.15 | 8.05 | – | – | – | COc1nc2ccccc2n2cnnc12 | 3.95 | –
4.51 | 2.97 | – | – | – | c1ccc(CNc2nc3ccccc3n3cnnc23)cc1 | 40.5 | –
1.48 | 0.88 | 48.6 | 2.09 | Active | CNc1nc2ccccc2n2cnnc12 | 3.17 | –
3.76 | 2.44 | – | – | – | COc1ccccc1/C=N/Nc1nc2ccccc2n2cnnc12 | 2.21 | –
6.41 | 9.9 | – | – | – | CCOc1nc2ccccc2n2cnnc12 | 4.21 | –
2.66 | 3.18 | – | – | – | OCCNc1nc2ccccc2n2cnnc12 | 0.14 | –
